{"source": "paper PMC3407089", "about": "“Influence of GABAA Receptor α Subunit Isoforms on the Benzodiazepine Binding Site” (PLoS ONE, 2012)", "key": {"[1]": {"system": "α6S203Cβ2γ2 GABAA receptor", "test": "Covalent reaction at the functional level (two-electrode voltage clamp, Xenopus oocytes)", "assay_type": "cell-based", "details": "1 µM Abecarnil at GABA EC2–5, naive oocytes", "method": "(§1) Capped cRNAs were synthesized (Ambion, Austin, TX, USA) from the linearized plasmids with a cytomegalovirus promotor (pCMVvectors) containing the different subunits, respectively. A poly-A tail of about 400 residues was added to each transcript using yeast poly- A polymerase (United States Biologicals, Cleveland, OH, USA). The concentration of the cRNA was quantified on a formaldehyde gel using Radiant Red stain (Bio-Rad) for visualization of the RNA. Known concentrations of RNA ladder (Invitrogen) were loaded as standard on the same gel. cRNAs were precipitated in ethanol/isoamylalcohol 19∶ 1, the dried pellet dissolved in water and stored at −80°C. cRNA mixtures were prepared from these stock solutions and stored at −80°C. Xenopus laevis oocytes were prepared, injected and defolliculated as described previously, [39]. They were injected with 50 nL of the cRNA solution containing wild type or mutated α1 or α2, α3, α5, α6 and wild type β2 and γ2 subunits at a concentration of 10 nM : 10 nM : 50 nM [40] and then incubated in modified Barth’s solution at +18°C for at least 24 h before the measurements.\n(§2) Currents were measured using a modified two-electrode voltage clamp amplifier Oocyte clamp OC-725 (Warner Instruments) in combination with a XY-recorder (90% response time 0.1s) or digitized at 100 Hz using a PowerLab 2/20 (AD Instruments) using the computer programs Chart (ADInstruments GmbH, Spechbach, Germany). Tests with a model oocyte were performed to ensure linearity in the larger current range. The response was linear up to 15 µA.\n(§3) Electrophysiological experiments were performed by using the two-electrode voltage clamp method at a holding potential of −80 mV. The perfusion medium contained 90 mM NaCl, 1 mM KCl, 1 mM MgCl2, 1 mM CaCl2, and 5 mM Na-HEPES (pH 7.4) and was applied by gravity flow 6 ml/min. The perfusion medium was applied through a glass capillary with an inner diameter of 1.35 mm, the mouth of which was placed about 0.4 mm from the surface of the oocyte. Allosteric modulation via the benzodiazepine site was measured at a GABA concentration eliciting 2–5% of the maximal GABA current amplitude. GABA was applied for 20 s alone or in combination with allosteric compound. 6 ml of the covalent reacting compound was applied to the oocyte and incubated for 3 min while stopping the flow of the perfusion medium. Modulation of GABA currents was expressed as (I(modulator + GABA)/IGABA –1) * 100%. The perfusion system was cleaned between drug applications by washing with DMSO to avoid contamination."}, "[2]": {"system": "α6N204Cβ2γ2 GABAA receptor", "test": "Covalent reaction at the functional level (two-electrode voltage clamp, Xenopus oocytes)", "assay_type": "cell-based", "details": "1 µM Abecarnil at GABA EC2–5, naive oocytes", "method": "as §1, §2, §3"}, "α6T205Cβ2γ2 receptor": {"target": "T1, α6T205Cβ2γ2 receptor (Rattus norvegicus, UniProt P18508+P30191, T224C)", "T1 construct": "expressed in transfected cells; host or cells: HEK293 cells (ATCC CRL 1573), membranes", "T1 sequence (P30191 20-453 T224C)": "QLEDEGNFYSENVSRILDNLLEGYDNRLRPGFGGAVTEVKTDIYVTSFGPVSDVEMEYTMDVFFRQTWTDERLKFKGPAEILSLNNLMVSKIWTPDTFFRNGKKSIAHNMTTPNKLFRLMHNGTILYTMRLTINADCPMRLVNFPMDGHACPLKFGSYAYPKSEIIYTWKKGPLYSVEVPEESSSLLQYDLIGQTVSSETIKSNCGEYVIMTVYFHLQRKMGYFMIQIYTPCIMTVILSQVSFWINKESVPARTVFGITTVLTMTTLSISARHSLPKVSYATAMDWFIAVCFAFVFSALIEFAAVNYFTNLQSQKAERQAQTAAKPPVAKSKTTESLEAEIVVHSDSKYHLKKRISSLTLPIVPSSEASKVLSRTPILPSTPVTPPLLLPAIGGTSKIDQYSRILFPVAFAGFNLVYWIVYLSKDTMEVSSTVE", "T1 sequence (P63138 25-474 partner limits assumed)": "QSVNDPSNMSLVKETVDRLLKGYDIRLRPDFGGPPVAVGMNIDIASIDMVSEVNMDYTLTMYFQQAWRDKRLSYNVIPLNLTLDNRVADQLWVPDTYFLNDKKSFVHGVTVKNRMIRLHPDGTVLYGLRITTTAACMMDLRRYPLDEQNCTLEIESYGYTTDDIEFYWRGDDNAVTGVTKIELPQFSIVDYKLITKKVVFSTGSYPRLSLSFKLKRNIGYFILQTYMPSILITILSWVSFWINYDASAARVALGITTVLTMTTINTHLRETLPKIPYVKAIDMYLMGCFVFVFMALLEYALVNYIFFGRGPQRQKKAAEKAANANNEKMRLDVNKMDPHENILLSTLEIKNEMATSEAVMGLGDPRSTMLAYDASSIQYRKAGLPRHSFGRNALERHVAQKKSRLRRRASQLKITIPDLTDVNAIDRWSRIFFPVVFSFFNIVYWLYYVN", "T1 sequence (P18508 39-466)": "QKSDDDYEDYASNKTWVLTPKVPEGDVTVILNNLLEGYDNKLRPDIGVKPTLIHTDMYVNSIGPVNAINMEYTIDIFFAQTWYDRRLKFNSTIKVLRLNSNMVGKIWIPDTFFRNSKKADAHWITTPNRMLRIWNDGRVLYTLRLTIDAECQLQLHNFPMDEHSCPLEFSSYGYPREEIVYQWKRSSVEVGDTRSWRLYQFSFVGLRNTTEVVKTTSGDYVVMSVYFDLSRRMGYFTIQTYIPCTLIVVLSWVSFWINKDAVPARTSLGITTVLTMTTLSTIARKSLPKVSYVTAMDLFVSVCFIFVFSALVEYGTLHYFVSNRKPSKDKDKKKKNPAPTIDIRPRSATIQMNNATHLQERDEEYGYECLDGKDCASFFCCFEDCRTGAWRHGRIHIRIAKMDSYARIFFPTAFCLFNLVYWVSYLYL", "test": "Affinity estimate with [^3H]Ro15–4513", "assay_type": "binding", "details": "read-out: Estimated affinity", "method": "(§4) cDNAs coding for the αx (x = 1, 2, 3, 6), β2, and γ2S subunits DNA (20 µg : 20 µg : 20 µg) per 9 cm diameter dish were transfected in human embryonic kidney (HEK) 293 cells (American Type of Culture Collection, MD, USA, CRL 1573) using the calcium phosphate precipitation technique. For α5 containing receptors β2 was replaced by β1. […] Culturing of cells and membrane preparation were done as described before.\n(§5) The properties of the recombinant mutant receptors were only estimated. For this affinity estimate, membranes were re-suspended in phosphate buffer using a Teflon homogenizer. They were incubated in a total volume of 360 µl for 1 h on ice in the presence of [^3H]Ro15–1788 (78.6 Ci/mmol; PerkinElmer Life Sciences). The final protein concentration was 0.1–1 mg of protein/ml. Total binding was measured at 0.5 and 5 nM [^3H]Ro15–1788. Nonspecific binding was determined under the same condition but in the presence of 100 µM unlabeled Ro15–1788 and amounted to less than 10% of total binding, except for α2S206Cβ2γ2 and α5T208Cβ2γ2 where it amounted to 10–17%. Expression levels of α6β2γ2 receptors were estimated with [^3H]Ro15–4513. Membranes were collected by rapid vacuum filtration on GF/C filters. After three washing steps (3 sec each) with 5 ml of phosphate buffer, the filter-retained radioactivity was determined by liquid scintillation counting."}, "α2G207Cβ2γ2 receptors": {"system": "T2, α2G207Cβ2γ2 receptors", "T2 construct": "expressed in transfected cells; host or cells: HEK293 cells (ATCC CRL 1573), membranes", "test": "Radioactive ligand binding", "details": "not shown", "method": "as §4, §5"}, "α1G207Cβ2γ2 receptors": {"system": "T3, α1G207Cβ2γ2 receptors", "T3 construct": "expressed in transfected cells; host or cells: HEK293 cells (ATCC CRL 1573), membranes", "test": "Radioactive ligand binding", "details": "not shown", "method": "as §4, §5"}, "α6 containing receptors": {"system": "T4, α6 containing receptors", "T4 construct": "expressed in transfected cells; host or cells: Xenopus laevis oocytes (cRNA injection)", "test": "Functional modulation of GABA currents (Xenopus oocytes)", "assay_type": "cell-based", "details": "functional level", "method": "as §1, with “Xenopus laevis oocytes were prepared, injected and defolliculated as described previously, [39]. They were injected with 50 nL of the cRNA solution containing wild type or mutated α1 or α2, α3, α5, α6 and wild type β2 and γ2 subunits at a concentration of 10 nM : 10 nM : 50 nM [40] and then incubated in modified Barth’s solution at +18°C for at least 24 h before the measurements.” left out\nCurrents were measured using a modified two-electrode voltage clamp amplifier Oocyte clamp OC-725 (Warner Instruments) in combination with a XY-recorder (90% response time 0.1s) or digitized at 100 Hz using a PowerLab 2/20 (AD Instruments) using the computer programs Chart (ADInstruments GmbH, Spechbach, Germany). […]\nElectrophysiological experiments were performed by using the two-electrode voltage clamp method at a holding potential of −80 mV. […] Allosteric modulation via the benzodiazepine site was measured at a GABA concentration eliciting 2–5% of the maximal GABA current amplitude. […] Modulation of GABA currents was expressed as (I(modulator + GABA)/IGABA –1) * 100%. […]"}, "[3]": {"system": "α1S204Cβ2γ2 GABAA receptor", "test": "Covalent reaction at the functional level (two-electrode voltage clamp, Xenopus oocytes)", "assay_type": "cell-based", "details": "1 µM diazepam at GABA EC2–5, naive oocytes", "method": "as §1, §2, §3"}, "[4]": {"system": "α3S230Cβ2γ2 GABAA receptor", "test": "Covalent reaction at the functional level (two-electrode voltage clamp, Xenopus oocytes)", "assay_type": "cell-based", "details": "1 µM diazepam at GABA EC2–5, naive oocytes", "method": "as §1, §2, §3"}, "[5]": {"system": "α5S209Cβ2γ2 GABAA receptor", "test": "Covalent reaction at the functional level (two-electrode voltage clamp, Xenopus oocytes)", "assay_type": "cell-based", "details": "1 µM diazepam at GABA EC2–5, naive oocytes", "method": "as §1, §2, §3"}, "[6]": {"system": "α5T208Cβ2γ2 GABAA receptor", "test": "Covalent reaction at the functional level (two-electrode voltage clamp, Xenopus oocytes)", "assay_type": "cell-based", "details": "1 µM diazepam at GABA EC2–5, naive oocytes", "method": "as §1, §2, §3"}, "[7]": {"system": "α3T231Cβ2γ2 GABAA receptor", "test": "Covalent reaction at the functional level (two-electrode voltage clamp, Xenopus oocytes)", "assay_type": "cell-based", "details": "1 µM diazepam at GABA EC2–5, naive oocytes", "method": "as §1, §2, §3"}, "[8]": {"system": "T5, α5T210Cβ2γ2 GABAA receptor", "T5 construct": "expressed in transfected cells; host or cells: Xenopus laevis oocytes (cRNA injection)", "test": "Covalent reaction at the functional level (two-electrode voltage clamp, Xenopus oocytes)", "assay_type": "cell-based", "details": "1 µM diazepam at GABA EC2–5, naive oocytes", "method": "as §1, §2, §3"}}, "note": "pKd: −log10 of the molar value."}
{"smiles": "COCc1c(C(=O)OC(C)C)ncc2[nH]c3ccc(OCc4ccccc4)cc3c12", "note": "[Abecarnil, reference compound]", "values": [{"measurement": "% allosteric modulation, DZ (*1µM Abecarnil was used)", "setting": "[1]", "result": "50±20", "unit": "%"}, {"measurement": "% allosteric modulation, DZ (*1µM Abecarnil was used)", "setting": "[2]", "result": "70±40", "unit": "%"}]}
{"smiles": "CCOC(=O)c1ncn2c1CN(C)C(=O)c1cc(N=[N+]=[N-])ccc1-2", "note": "[[^3H]Ro15–4513]", "values": [{"measurement": "pKd", "setting": "α6T205Cβ2γ2 receptor", "result": 8.40}]}
{"smiles": "CN1C(=O)CN=C(c2ccccc2F)c2cc([N+](=O)[O-])ccc21", "note": "[[^3H]flunitrazepam, flunitrazepam]", "values": [{"measurement": "High affinity binding (in words)", "setting": "α2G207Cβ2γ2 receptors", "result": "did not confer to the expressed receptors high affinity"}, {"measurement": "High affinity binding (in words)", "setting": "α1G207Cβ2γ2 receptors", "result": "did not confer to the expressed receptors high affinity"}]}
{"smiles": "CCOC(=O)c1ncn2c1CN(C)C(=O)c1cc(F)ccc1-2", "note": "[[^3H]Ro 15–1788]", "values": [{"measurement": "High affinity binding (in words)", "setting": "α2G207Cβ2γ2 receptors", "result": "did not confer to the expressed receptors high affinity"}, {"measurement": "High affinity binding (in words)", "setting": "α1G207Cβ2γ2 receptors", "result": "did not confer to the expressed receptors high affinity"}]}
{"smiles": "CN1C(=O)CN=C(c2ccccc2)c2cc(Cl)ccc21", "note": "[DZ, diazepam, reference compound]", "values": [{"measurement": "Response to diazepam (in words)", "setting": "α6 containing receptors", "result": "did not respond"}, {"measurement": "% allosteric modulation, DZ", "setting": "[3]", "result": "126±9", "unit": "%"}, {"measurement": "% allosteric modulation, DZ", "setting": "[4]", "result": "149±44", "unit": "%"}, {"measurement": "% allosteric modulation, DZ", "setting": "[5]", "result": "103±3", "unit": "%"}, {"measurement": "% allosteric modulation, DZ", "setting": "[6]", "result": "129±38", "unit": "%"}, {"measurement": "% allosteric modulation, DZ", "setting": "[7]", "result": "88±45", "unit": "%"}, {"measurement": "% allosteric modulation, DZ", "setting": "[8]", "result": "82±14", "unit": "%"}]}
